# Source: ChEMBL document CHEMBL1201862, “PubChem BioAssay data set” (2004)
# Activity calls are given as the source filed them.
# Key:
# [1] = HEK293T cell cytotoxicity, dose response, cytotoxicity control for HIV Vif inhibitor project, cherry-picks (AID 652208); type: functional, cell-based
# [2] = inhibitors of firefly luciferase expression or activity, dose response, H4 neuroglioma cells, luminescence (AID 1990); type: functional, cell-based
# Cysteine protease ATG4B = molecular target: T1, Cysteine protease ATG4B (Homo sapiens, UniProt Q9Y4P1); type: functional;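 further: Fluorescence-based dose-response confirmation assay measuring inhibition of ATG4B activity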
# T1 sequence (Q9Y4P1 whole entry): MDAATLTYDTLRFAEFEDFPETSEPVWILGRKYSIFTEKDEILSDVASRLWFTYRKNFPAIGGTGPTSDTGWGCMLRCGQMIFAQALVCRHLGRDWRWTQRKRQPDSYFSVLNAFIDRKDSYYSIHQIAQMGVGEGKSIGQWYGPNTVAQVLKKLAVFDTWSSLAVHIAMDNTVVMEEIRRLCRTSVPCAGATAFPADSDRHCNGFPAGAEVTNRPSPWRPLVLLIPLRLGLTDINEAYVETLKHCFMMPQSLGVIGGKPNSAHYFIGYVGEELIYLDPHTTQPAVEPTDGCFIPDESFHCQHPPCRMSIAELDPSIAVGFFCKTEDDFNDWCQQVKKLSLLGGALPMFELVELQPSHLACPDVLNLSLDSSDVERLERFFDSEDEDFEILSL
# [3] = inhibitors of SNCA 5'UTR-driven reporter translation, confirmation, H4 neuroglioma cells, luminescence (AID 1988); type: functional, cell-based
# Protein Tat = molecular target: T2, Protein Tat (Human immunodeficiency virus type 1 group M subtype B (isolate HXB2)(HIV-1), UniProt P04608); type: functional;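 further: tat binding to TAR RNA read out by fluorescence polarization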
# T2 sequence (P04608 whole entry): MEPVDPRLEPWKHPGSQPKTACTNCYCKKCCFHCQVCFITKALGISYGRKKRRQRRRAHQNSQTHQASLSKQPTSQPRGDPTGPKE
# [4] = inhibitors of Vif binding to APOBEC3G peptide, primary screen, biochemical, TR-FRET, GST-Vif 1-94, biotin-A3G peptide, dose response retest (AID 1117319); type: functional;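 further: TR-FRET signal of purified GST-Vif binding a biotinylated A3G peptide; inhibitors lower the FRET signal by blocking Vif and A3G binding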
# Phospholipase A2 = Phospholipase A2 (Homo sapiens, UniProt P04054); type: functional;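 further: confirmatory dose-response counterscreen on phospholipase A2, testing hits that came from an ultra-high-throughput screen for ATG4B inhibitors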
# [5] = Luminescence Cell-Based Dose Response HTS to Identify Inhibitors of 5'UTR Stem-Loop Driven Prion Protein mRNA Translation in H4 Neuroglioblastoma Cells. [Related pubchem assays: 1827 (Project Summary), 1813 (Primary HTS)]; type: functional
# [6] = molecular target: Fructose-bisphosphate aldolase (Mycobacterium tuberculosis, UniProt P9WQA3); assay: Fluorescence-based biochemical high throughput dose response assay for inhibitors of the fructose-bisphosphate aldolase (FBA) of M. tuberculosis.; type: functional
# HEK293 = assay: cells; type: functional, cell-based; details: Homo sapiens
# [7] = molecular target: T3, Nuclear receptor subfamily 0 group B member 1 (Homo sapiens, UniProt P51843); assay: Luminescence-based cell-based high throughput dose response assay for inhibitors of the orphan nuclear receptor subfamily 0, group B, member 1 (DAX1; NR0B1). [Related pubchem assays (depositor defined):AID504766, AID504790]; type: functional
# T3 sequence (P51843 whole entry): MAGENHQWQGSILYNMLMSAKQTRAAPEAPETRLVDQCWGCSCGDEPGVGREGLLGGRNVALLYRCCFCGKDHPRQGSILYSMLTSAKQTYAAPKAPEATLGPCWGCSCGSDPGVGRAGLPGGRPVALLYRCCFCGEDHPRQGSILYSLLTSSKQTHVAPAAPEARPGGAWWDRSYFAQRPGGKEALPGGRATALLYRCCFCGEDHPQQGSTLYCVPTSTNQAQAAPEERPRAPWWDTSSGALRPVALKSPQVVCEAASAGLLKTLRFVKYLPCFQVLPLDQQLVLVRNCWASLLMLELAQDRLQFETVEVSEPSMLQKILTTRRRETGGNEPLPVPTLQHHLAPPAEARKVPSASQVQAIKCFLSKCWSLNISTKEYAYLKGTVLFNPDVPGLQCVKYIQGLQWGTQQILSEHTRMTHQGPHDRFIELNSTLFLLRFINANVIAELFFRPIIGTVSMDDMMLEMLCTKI
# [8] = molecular target: T4, High affinity choline transporter 1 (Homo sapiens, UniProt Q9GZV3); assay: CHT inhibitors, dose response, cell-based, 5-point CRC, membrane potential dye (AID 504840); type: functional
# T4 sequence (Q9GZV3 whole entry): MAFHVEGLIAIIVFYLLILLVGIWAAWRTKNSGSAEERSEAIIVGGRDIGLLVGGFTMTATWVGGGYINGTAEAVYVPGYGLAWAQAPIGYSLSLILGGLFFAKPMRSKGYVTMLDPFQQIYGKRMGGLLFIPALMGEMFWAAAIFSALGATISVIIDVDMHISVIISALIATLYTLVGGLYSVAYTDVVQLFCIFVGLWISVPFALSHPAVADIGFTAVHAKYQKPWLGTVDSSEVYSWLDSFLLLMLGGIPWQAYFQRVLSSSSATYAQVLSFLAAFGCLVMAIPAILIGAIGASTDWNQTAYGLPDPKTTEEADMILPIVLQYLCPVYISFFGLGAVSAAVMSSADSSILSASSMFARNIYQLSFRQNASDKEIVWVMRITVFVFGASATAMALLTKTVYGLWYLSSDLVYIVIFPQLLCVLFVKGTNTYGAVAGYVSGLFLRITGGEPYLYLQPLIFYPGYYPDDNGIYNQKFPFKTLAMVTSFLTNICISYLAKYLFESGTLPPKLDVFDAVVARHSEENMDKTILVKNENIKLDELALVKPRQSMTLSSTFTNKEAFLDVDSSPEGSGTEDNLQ
# [9] = molecular target: T4, High affinity choline transporter 1; assay: CHT inhibitors, dose response, cell-based, 10-point CRC, membrane potential dye (AID 588401); type: functional;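 further: membrane potential dye fluorescence of choline-evoked depolarization via CHT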
# Sequence of Phospholipase A2 (P04054 whole entry): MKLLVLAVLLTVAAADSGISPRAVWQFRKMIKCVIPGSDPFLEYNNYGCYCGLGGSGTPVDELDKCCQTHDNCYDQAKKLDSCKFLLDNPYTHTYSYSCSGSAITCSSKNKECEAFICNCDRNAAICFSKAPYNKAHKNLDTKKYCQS
# Sequence of Fructose-bisphosphate aldolase (P9WQA3 whole entry): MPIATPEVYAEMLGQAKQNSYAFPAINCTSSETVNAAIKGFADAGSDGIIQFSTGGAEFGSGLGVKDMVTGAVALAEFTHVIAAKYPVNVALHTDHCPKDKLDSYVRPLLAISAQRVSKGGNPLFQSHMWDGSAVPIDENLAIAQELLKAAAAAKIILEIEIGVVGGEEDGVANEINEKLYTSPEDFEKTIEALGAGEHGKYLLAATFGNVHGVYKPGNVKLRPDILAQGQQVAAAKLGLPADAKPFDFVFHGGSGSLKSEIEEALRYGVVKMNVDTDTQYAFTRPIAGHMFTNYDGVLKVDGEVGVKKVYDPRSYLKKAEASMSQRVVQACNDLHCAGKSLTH
structure (smiles),measurement,setting,value
CCc1ccc2[nH]c3nc(SCC(=O)NNC(=O)c4ccc(C(C)(C)C)cc4)nnc3c2c1,AC50,[1],28.6 µM (active)
COc1ccc(-c2ccc(C#N)c(SCC(=O)Nc3sc4c(c3C#N)CCC4)n2)cc1OC,EC50,[2],13.9 µM (active)
same,IC50,Cysteine protease ATG4B,5.44 µM (active)
same,EC50,[3],11.1 µM (active)
same,IC50,Protein Tat,> 100 µM (active)
same,IC50,[4],> 100 µM (active)
same,IC50,Phospholipase A2,4.06 µM (active)
same,EC50,[5],> 120 µM (not active)
COc1ccc2nc3c(O)n4c(nc-3c2c1)SCC4,IC50,[6],1.4 µM (active)
Nc1nn(-c2ccccc2)c(N)c1N=Nc1ccc2c(c1)OCO2,IC50,Cysteine protease ATG4B,15.9 µM (active)
same,IC50,Phospholipase A2,10.4 µM (active)
O=S(=O)(NCc1ccc2c(c1)OCO2)c1ccc(F)cc1,IC50,HEK293,> 67.6 µM (inactive)
same,IC50,[7],> 67.6 µM (inactive)
O=C(/C=C/c1ccccc1)Nc1nc[nH]n1,AC50,[1],23.6 µM (active)
O=C(COC(=O)CN1C(=O)NC2(CCCC2)C1=O)Nc1ccccc1C(F)(F)F,IC50,HEK293,> 67.5 µM (inactive)
same,IC50,[7],> 67.5 µM (inactive)
Cc1ccc(NS(=O)(=O)c2cccc(C(=O)NCC(c3ccco3)N3CCCCC3)c2)cc1 (stereo not drawn),IC50,[8],9.8 µM (active)
same,IC50,[9],5.39 µM (active)
